According to publication PMC10386076, “Discovery of RC-752, a Novel Sigma-1 Receptor Antagonist with Antinociceptive Activity: A Promising Tool for Fighting Neuropathic Pain” (Pharmaceuticals, 2023):

Legend:
S1R = target: T1, S1R (Cavia porcellus, UniProt Q60492); assay: S1R radioligand displacement binding assay ([3H]-(+)-pentazocine); set-up: species or system guinea pig; conditions: for Selectivity (Ki S2R/Ki S1R): ratio Ki S2R/Ki S1R
T1 construct: tissue Harlan-Winkelmann, Borchen, Germany; host or cells: guinea pig brain membrane homogenate
T1 sequence (Q60492 whole entry): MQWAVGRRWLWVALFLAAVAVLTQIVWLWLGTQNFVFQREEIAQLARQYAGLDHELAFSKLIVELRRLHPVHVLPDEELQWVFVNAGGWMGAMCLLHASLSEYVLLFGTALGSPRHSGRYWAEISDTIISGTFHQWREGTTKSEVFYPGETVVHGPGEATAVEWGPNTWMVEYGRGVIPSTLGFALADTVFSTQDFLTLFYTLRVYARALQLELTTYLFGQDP
Protocol: (R/S)-1a–3e were first evaluated for their binding affinity toward the S1R and S2R in a radioligand displacement assay. […] Nonspecific binding was determined using non-radiolabeled (+)-pentazocine and haloperidol in excess. All the binding experiments were carried out in duplicate. […] Haloperidol was used as a control compound in both assays.
Five guinea pig brains were homogenized with the potter (500–800 rpm, 10 up and down strokes) in 6 volumes of cold 0.32 M sucrose. The suspension was centrifuged at 1200× g for 10 min at 4 °C. […] This procedure was repeated twice. The final pellet was resuspended in 56 volumes of buffer and frozen ([…]) in 1.5 mL portions containing about 1.5 mg protein/mL.
The test compound solutions were prepared by dissolving approximately 10 µmol (usually 2–4 mg) of test compound in dimethyl sulfoxide (DMSO, unless otherwise specified), so that a 10 mM stock solution was obtained. To obtain the required test solutions for the assay, the DMSO stock solution was diluted with the respective assay buffer. The filtermats were presoaked in 0.5% aqueous polyethylenamine solution for 2 h at r.t. before use. All the binding experiments were carried out in duplicate in 96-well multiplates. The concentrations given are the final concentrations in the assay. […] The receptor preparation was always added last. During the incubation, the multiplates were shaken at a speed of 500–600 rpm at the specified temperature. […] During the filtration each well was washed five times with 300 µL of water. Subsequently, the filtermats were dried at 95 °C. The solid scintillator was melted on the dried filtermats at 95 °C for 5 min. After the solidifying of the scintillator at r.t., the trapped radioactivity in the filtermats was measured with the scintillation analyzer. Each position on the filtermat corresponding to one well of the multiplate was measured for 5 min with the [^3H]-counting protocol. The overall counting efficiency was 20%. The IC50 values were calculated with GraphPad Prism 3.0 (GraphPad Software, San Diego, CA, USA) by nonlinear regression analysis. The IC50 values were subsequently transformed into Ki values using the equation of Cheng and Prusoff. All the experiments were carried out in duplicates. Compounds with high S1R affinity were tested in three independent experiments, and their Ki values are given as mean value ± SEM from the three measurements. […] (22.0 Ci/mmol; Perkin-Elmer). […] The nonspecific binding was determined with 10 µM unlabeled (+)-pentazocine.

PC12 cells = assay: NGF-induced neurite outgrowth assay in PC12 cells; type: cell-based; conditions: for effect on percentage of differentiated PC12 cells, co-administration with PRE-084: 0.25 μM and 2.5 μM with 10 μM PRE-084, vs PRE-084; for effect on NGF-induced neurite outgrowth, compound alone: 0.25 μM and 2.5 μM, vs NGF
Protocol: At 80% confluence, the cells were either split to allow a further culture expansion or plated onto 48-well flat-bottom plates previously coated with poly-L-ornithine (Sigma Aldrich, Milan, Italy) at the final concentration of 10 μg/cm^2. The cells were plated at low density (2500 cells/well) to allow proper neurite elongation. The PC12 cells were mechanically detached from the flask to avoid cell-surface receptor cleavage and to preserve the correct binding of NGF to the TrkA receptors. To minimize detachment stress, the cells were left in PM for 24 h to recover. […] PRE-084 (10 µM), an S1R agonist, was used to verify that the effects of the selected compounds were due to the S1R modulation. In CTR conditions, the cells were incubated with the drug vehicle. For all the ligands, two replicates per concentration were performed in at least 3 experiments with different PC12 batches.
After 72 h incubation in DM, the cells were fixed with a 4% paraformaldehyde solution (pH 7.4). To allow the neurite visualization with a bright-field microscope, the cells were stained with the Harris Hematoxylin solution (Sigma Aldrich). After staining, images of six fields per well were acquired with a digital camera linked to a bright-field inverted microscope (Optika) (20× magnification). […] Only the cells bearing a neurite as long as their soma’s diameter were identified as differentiated cells. The number of differentiated cells was expressed as the percentage of differentiated cells over the total number of cells.

HeLa cells = assay: AQP-mediated osmotic water permeability assay (stopped-flow light scattering); conditions: pre-treatment 20 μM, heat stress 42 °C 3 h
Protocol: As an orthogonal assay to determine the functional profile of our compounds, the effect on AQP-mediated water permeability was investigated. AQPs are a family of transmembrane proteins involved in the transport of water and other small molecules (e.g., H2O2) through cell membranes. AQP functions are thus critical in ensuring reactive oxygen species (ROS) scavenging and cell survival. […] Briefly, the osmotic water permeability of HeLa cells was measured by a stopped-flow light scattering method and expressed as a percentage of k relative.
Osmotic water permeability was measured in the HeLa cell suspension by the stopped-flow light scattering method, as previously described. The experiments were performed at 25 °C on the stopped-flow apparatus (RX2000, Applied Photophysics, Leatherhead, UK) with a pneumatic drive accessory (DA.1, Applied Photophysics) straightforwardly coupled with a Varian Cary 50 spectrometer (Varian Australia Pty Ltd., Mulgrave, Australia). Briefly, scattered light intensity with a dead time of 6 ms was recorded at a wavelength of 450 nm. […] To evaluate the effect of the test compounds on water permeability, the HeLa cells were divided into different groups: (1) controls, cells incubated at r.t. (21 °C) in the presence of the same volume of methanol as that of the treated cells; (2) heat-stressed cells, cells heat-treated in a water thermostatic and shacking bath at 42 °C for 3 h; (3) heat-stressed cells pre-treated with the test compounds at a 20 µM final concentration (dissolved in methanol).

Compound: OCC(CCN1CCC(Cc2ccccc2)CC1)c1ccc2ccccc2c1 (stereo not drawn) [Compound 2e, 4-(4-benzylpiperidin-1-yl)-2-(naphthalen-2-yl)butan-1-ol]
- Ki (S1R): 25 ± 4 nM
- Selectivity (Ki S2R/Ki S1R) (S1R): 13

Compound: CCN(CC)CCC(CO)c1ccc2cc(OC)ccc2c1 (stereo not drawn) [Compound 3b, 4-(diethylamino)-2-(6-methoxynaphthalen-2-yl)butan-1-ol]
- Ki (S1R): 87 ± 28 nM
- Selectivity (Ki S2R/Ki S1R) (S1R): 14

Compound: OCC(CCN1CCCCC1)c1ccc2ccccc2c1 (stereo not drawn) [Compound 2d, 2-(naphthalen-2-yl)-4-(piperidin-1-yl)butan-1-ol]
- Ki (S1R): 15 ± 6 nM
- Selectivity (Ki S2R/Ki S1R) (S1R): 11
- effect on percentage of differentiated PC12 cells, co-administration with PRE-084 (PC12 cells): significantly reduced
- effect on NGF-induced neurite outgrowth, compound alone (PC12 cells): did not significantly enhance
- effect on water permeability in heat-stressed HeLa cells (HeLa cells): in line with that of S1R antagonists

Compound: OCC(CCN1CCOCC1)c1ccc(-c2ccccc2)cc1 (stereo not drawn) [Compound 1a, 2-([1,1’-biphenyl]-4-yl)-4-morpholinobutan-1-ol]
- Ki (S1R): 13 ± 3 nM
- Selectivity (Ki S2R/Ki S1R) (S1R): 24
- effect on percentage of differentiated PC12 cells, co-administration with PRE-084 (PC12 cells): significantly reduced
- effect on NGF-induced neurite outgrowth, compound alone (PC12 cells): did not significantly enhance
- effect on water permeability in heat-stressed HeLa cells (HeLa cells): in line with that of S1R antagonists

Compound: CCCN(CCC)CCc1ccc(OC)c(OCCc2ccccc2)c1 [NE-100, reference compound]
- effect on water permeability in heat-stressed HeLa cells (HeLa cells): has no effect

Compound: OCC(CCN1CCOCC1)c1ccc2ccccc2c1 (stereo not drawn) [Compound 2a, 4-morpholino-2-(naphthalen-2-yl)butan-1-ol]
- Ki (S1R): 206 ± 37 nM
- Selectivity (Ki S2R/Ki S1R) (S1R): 31

Compound: COc1ccc2cc(C(CO)CCN(C)Cc3ccccc3)ccc2c1 (stereo not drawn) [Compound 3c, 4-(benzyl(methyl)amino)-2-(6-methoxynaphthalen-2-yl)butan-1-ol]
- Ki (S1R): 20 ± 3 nM
- Selectivity (Ki S2R/Ki S1R) (S1R): 7

Compound: OCC(CCN1CCC(Cc2ccccc2)CC1)c1ccc(-c2ccccc2)cc1 (stereo not drawn) [Compound 1e, 2-([1,1’-biphenyl]-4-yl)-4-(4-benzylpiperidin-1-yl)butan-1-ol]
- Ki (S1R): 94 ± 12 nM
- Selectivity (Ki S2R/Ki S1R) (S1R): 2

Compound: CCN(CC)CCC(CO)c1ccc2ccccc2c1 (stereo not drawn) [Compound 2b, 4-(diethylamino)-2-(naphthalen-2-yl)butan-1-ol]
- Ki (S1R): 110 ± 25 nM
- Selectivity (Ki S2R/Ki S1R) (S1R): 10

Compound: O=C(OCCN1CCOCC1)C1(c2ccccc2)CCCCC1 [PRE-084, reference compound]
- neurite outgrowth, % of PC12 cells (PC12 cells; PRE-084 at 10 μM, with NGF): 36 ± 4%
- effect on water permeability in heat-stressed HeLa cells (HeLa cells): effective in restoring water permeability

Compound: CN(CCC(CO)c1ccc2ccccc2c1)Cc1ccccc1 (stereo not drawn) [Compound 2c, 4-(benzyl(methyl)amino)-2-(naphthalen-2-yl)butan-1-ol]
- Ki (S1R): 9.5 ± 1.8 nM
- Selectivity (Ki S2R/Ki S1R) (S1R): 4

Compound: COc1ccc2cc(C(CO)CCN3CCOCC3)ccc2c1 (stereo not drawn) [Compound 3a, 2-(6-methoxynaphthalen-2-yl)-4-morpholinobutan-1-ol]
- Ki (S1R): 324 ± 10 nM
- Selectivity (Ki S2R/Ki S1R) (S1R): 4

Compound: COc1ccc2cc(C(CO)CCN3CCCCC3)ccc2c1 (stereo not drawn) [Compound 3d, 2-(6-methoxynaphthalen-2-yl)-4-(piperidin-1-yl)butan-1-ol]
- Ki (S1R): 38 ± 9 nM
- Selectivity (Ki S2R/Ki S1R) (S1R): 32

Compound: CCN(CC)CCC(CO)c1ccc(-c2ccccc2)cc1 (stereo not drawn) [Compound 1b, 2-([1,1’-biphenyl]-4-yl)-4-(diethylamino)butan-1-ol]
- Ki (S1R): 20 ± 4 nM
- Selectivity (Ki S2R/Ki S1R) (S1R): 34

Compound: NGF
- differentiation, % of PC12 cells (PC12 cells; NGF alone at 2.5 nM): 22 ± 2%

Compound: COc1ccc2cc(C(CO)CCN3CCC(Cc4ccccc4)CC3)ccc2c1 (stereo not drawn) [Compound 3e, 4-(4-benzylpiperidin-1-yl)-2-(6-methoxynaphthalen-2-yl)butan-1-ol]
- Ki (S1R): 85 ± 11 nM
- Selectivity (Ki S2R/Ki S1R) (S1R): 0.6
